Values joined by “and” are separate entries in the source; they are usually repeats but may differ in a detail not shown here. Identical values can stand only once.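 In this assay, cells in 96-well plates receive the compound at five concentrations for 48 hours. Endpoints are linearly interpolated between the surrounding concentrations. At the GI50, growth is halved. TGI: concentration producing complete growth inhibition.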

Test systems include BT-549 breast; HCC-2998 colon; HCT-15 colon; HT29 colon; MCF7 breast; MOLT-4 leukemia; OVCAR-4 ovarian; PC-3 prostate; RPMI-8226 leukemia; RXF 393 renal.
Assay in all cases: growth of human tumour cells (NCI), 48 h

Regarding `C[C@@H]1CCc2ncc(F)cc2[C@H]2CCCN2c2ccn3ncc(c3n2)C(=O)N1`, the GI50 with BT-549 breast is 69.8 µM; with HCC-2998 colon it was above 100 µM; with HCT-15 colon, 77.1 µM; with HT29 colon, 68.3 µM; with MCF7 breast it was 53.1 µM; in the test with MOLT-4 leukemia, 36.1 µM. Also, the GI50 in the test on OVCAR-4 ovarian is 62.4 µM; with PC-3 prostate it was above 100 µM; with RPMI-8226 leukemia, 94.8 µM; in the test with RXF 393 renal, 16.7 µM. Moreover, the TGI in the test with BT-549 breast, in the test with HCC-2998 colon, with HCT-15 colon, with HT29 colon, with MCF7 breast and with MOLT-4 leukemia was above 100 µM in each case. In addition, the TGI was above 100 µM in the test with OVCAR-4 ovarian, above 100 µM in the test with PC-3 prostate, above 100 µM with RPMI-8226 leukemia and 61 µM in the test on RXF 393 renal.

As to `COc1cc2c3cc1Oc1c(OC)c(OC)cc4c1C(Cc1ccc(O)c(c1)Oc1ccc(cc1)CC3N(C)CC2)N(C)CC4` (stereo not drawn), the GI50 in the test with BT-549 breast was 14.7 µM; with HCC-2998 colon, 10.9 µM; in the test with HCT-15 colon it was 4.82 µM; in the test with HT29 colon, 1.78 µM; with MCF7 breast, 11.5 µM; with MOLT-4 leukemia, 12.1 µM. Further, the GI50 was 15.3 µM with OVCAR-4 ovarian, 23.4 µM with PC-3 prostate, 11.8 µM in the test with RPMI-8226 leukemia and 2.18 µM with RXF 393 renal. The TGI with BT-549 breast was 60.1 µM and 35.6 µM; with HCC-2998 colon, 37.3 µM and 32.1 µM; in the test with HCT-15 colon, 37.6 µM and > 100 µM; with HT29 colon, > 100 µM and 32.8 µM; with MCF7 breast, > 100 µM and 66.8 µM; in the test with MOLT-4 leukemia, > 100 µM and 54.9 µM. In addition, the TGI with OVCAR-4 ovarian is > 100 µM and 50.7 µM; with PC-3 prostate, above 100 µM; with RPMI-8226 leukemia it was 40.1 µM; in the test with RXF 393 renal, 14.8 µM.

For `COCC(C(=O)OC1C/C=C/C=C/C(=O)OC(C(C)C(O)C(C)CCC(OC(=O)C(C)N(C)C)C(C)C(OC(C)=O)C(C)/C=C/N(C)C=O)C/C=C/C(OC)CC(C)C/C=C(\C)C(OC)CCC(C)C(O)C1C)N(C)C` (stereo not drawn), the GI50 in the test with BT-549 breast was 0.00677 µM; in the test with HCC-2998 colon, below 0.0001 µM; in the test with HCT-15 colon, below 0.0001 µM; in the test with MCF7 breast it was below 0.0001 µM; in the test with MOLT-4 leukemia, below 0.0001 µM; in the test with OVCAR-4 ovarian it was 0.00537 µM. The GI50 with PC-3 prostate, in the test with RPMI-8226 leukemia and in the test on RXF 393 renal was below 0.0001 µM throughout. Besides, the TGI in the test with BT-549 breast is 0.0915 µM; in the test on HCC-2998 colon, 0.237 µM; in the test on HCT-15 colon it was 0.00194 µM; with MCF7 breast it was 0.06 µM; with MOLT-4 leukemia, above 0.201 µM; with OVCAR-4 ovarian, above 0.281 µM. Besides, the figures for the TGI in the test with PC-3 prostate, in the test on RPMI-8226 leukemia and in the test on RXF 393 renal were above 1 µM, 0.0077 µM and 0.0177 µM, respectively.

Regarding `N#Cc1cc(S(=O)(=O)Nc2nc3cc(Cl)ccc3o2)c(SCc2ccccc2)cc1Cl`, the GI50 in the test on BT-549 breast is 13.4 µM; in the test on HCC-2998 colon it was 12.6 µM; in the test with HCT-15 colon, 16.2 µM; with HT29 colon, 17.3 µM; in the test on MCF7 breast, 17.3 µM; with MOLT-4 leukemia it was 18.6 µM. Besides, the GI50 was 15.9 µM in the test with OVCAR-4 ovarian, 15.1 µM in the test with PC-3 prostate, 16.3 µM in the test on RPMI-8226 leukemia and 12.5 µM with RXF 393 renal. Besides, the TGI with BT-549 breast was 26.2 µM; with HCC-2998 colon, 25.1 µM; in the test on HCT-15 colon it was 29.7 µM; with HT29 colon, 31 µM; with MCF7 breast, 33.3 µM; in the test on MOLT-4 leukemia, 39 µM. The TGI worked out at 35.1 µM in the test with OVCAR-4 ovarian, 28.3 µM with PC-3 prostate, 43 µM with RPMI-8226 leukemia and 25 µM in the test with RXF 393 renal.

As for `NC1=NCN(C2OC(CO)C(O)C2O)C(=O)N1` (stereo not drawn), the TGI in the test on BT-549 breast turned out to be 765 µM; in the test with HCC-2998 colon it was 1190 µM; with HCT-15 colon it was 530 µM; with HT29 colon it was 2000 µM; with MCF7 breast it was 328 µM; with MOLT-4 leukemia it was 152 µM. Besides, the TGI was found to be 1510 µM with OVCAR-4 ovarian, 1530 µM in the test with PC-3 prostate, 159 µM with RPMI-8226 leukemia and 218 µM in the test with RXF 393 renal.

`COc1cc2cc(Oc3cccc(NC(=O)Nc4cc(C(F)(F)F)cc(C(F)(F)F)c4)c3)c(C)nc2cc1OC`: the GI50 in the test with BT-549 breast is 1.75 µM; with HCC-2998 colon, 1.53 µM; in the test with HCT-15 colon, 0.668 µM; in the test on HT29 colon it was 1.52 µM; in the test on MCF7 breast, 0.544 µM; in the test with MOLT-4 leukemia it was 1.13 µM. Further, the GI50 with OVCAR-4 ovarian was 1.22 µM; with PC-3 prostate it was 0.423 µM; in the test with RPMI-8226 leukemia, 0.406 µM; in the test with RXF 393 renal it was 2.06 µM. In addition, the TGI in the test on BT-549 breast is 3.76 µM; with HCC-2998 colon, 3.15 µM; in the test on HCT-15 colon it was 2.04 µM; in the test on HT29 colon it was 3.46 µM; in the test with MCF7 breast, 2.36 µM; with MOLT-4 leukemia, 4.04 µM. The TGI with OVCAR-4 ovarian amounted to 4.44 µM; in the test with PC-3 prostate it was 2.48 µM; in the test with RPMI-8226 leukemia, 5.51 µM; with RXF 393 renal, 4.79 µM.

In the case of `CCOc1ccc2cc(-c3nn(CC4CCNCC4)c4ncnc(N)c34)ccc2c1`, the GI50 in the test on BT-549 breast was 13.4 µM; in the test with HCC-2998 colon, 17.1 µM; in the test with HCT-15 colon it was 13.5 µM; in the test on HT29 colon, 10.9 µM; in the test with MCF7 breast, 11.2 µM; in the test with MOLT-4 leukemia it was 4.73 µM. The GI50 in the test with OVCAR-4 ovarian is 10.9 µM; in the test on PC-3 prostate, 15.5 µM; in the test on RPMI-8226 leukemia it was 14 µM; in the test with RXF 393 renal, 3.96 µM. Besides, the TGI in the test with BT-549 breast is 27.6 µM; in the test with HCC-2998 colon it was 31.5 µM; in the test on HCT-15 colon, 32.1 µM; in the test with HT29 colon, 32 µM; with MCF7 breast, 24.8 µM; in the test on MOLT-4 leukemia, 19.8 µM. Besides, the TGI came to 33.4 µM in the test with OVCAR-4 ovarian, 41.9 µM in the test with PC-3 prostate, 34.6 µM in the test on RPMI-8226 leukemia and 17.1 µM in the test on RXF 393 renal.

With `COc1ccc2c(c1)C(=O)c1c-2c(OCCN(C)C)nc2cc(OC)c(OC)cc12`, the GI50 in the test with BT-549 breast was 26.5 µM; with HCC-2998 colon it was 8.85 µM; with HCT-15 colon it was 9.67 µM; with HT29 colon, 1.76 µM; in the test on MCF7 breast, 0.271 µM; in the test with MOLT-4 leukemia it was 0.197 µM. The GI50 in the test with OVCAR-4 ovarian is 2.81 µM; in the test with PC-3 prostate it was 3.76 µM; in the test on RPMI-8226 leukemia, 1.26 µM; in the test with RXF 393 renal, 4.48 µM. In addition, the TGI is above 100 µM in the test with BT-549 breast; 49.9 µM in the test on HCC-2998 colon; 23.6 µM in the test with HCT-15 colon; 18.1 µM in the test on HT29 colon; 14.9 µM in the test on MCF7 breast; above 100 µM in the test on MOLT-4 leukemia. Besides, the TGI in the test on OVCAR-4 ovarian was above 100 µM; in the test on PC-3 prostate it was 65.9 µM; in the test on RPMI-8226 leukemia, 5.23 µM; in the test with RXF 393 renal, 18.6 µM.

For the origin of these results see PubChem BioAssay (NCI).
